Assay results from patent US8658668B2, “PI3 kinase/mTOR dual inhibitor” (Eli Lilly and Company, priority 2011, dated 2014).

What was measured:
[1] = test system: LXFE 1422 human tumor xenograft cells; experiment: Oncotest tumor clonogenic assay, LXFE 1422; format: cell-based; conditions: colony formation, NSCLC LXFE 1422, squamous cell carcinoma, ud, read-out: Absolute IC50
S6RP(pS240/242) = experiment: Phosphorylated S6RP in U87MG cells; format: cell-based; conditions: Homo sapiens, U-87 MG, n = 3, read-out: S6RP(pS240/242) Absolute IC50
Description: (§1) This homogeneous assay format uses immuno-sandwich capture of the phosphorylated analyte and then detection with antibody-coated Alphascreen beads to generate an amplified signal.
(§2) Maintain U87MG cells in U87MG growth medium consisting of DMEM (GIBCO 11965-092) supplemented with 10% fetal bovine serum (FBS, GIBCO, 10091-141), 1% nonessential amino acids (GIBCO, 11140-050) and 1% sodium pyruvate (GIBCO, 11360-070). Harvest cells using standard cell culture procedures and then count using Vi-Cell. Plate 100 μL of U87MG cells in growth medium (50,000 cells/well) into Costar #3596 96 well plates and incubate overnight at 37° C., 5% CO2.
(§3) Incubate for one h at 37° C., then remove the medium and add 50 μL of 1× SureFire Lysis Buffer (TGR Biosciences SureFire® Kit component) to each well and incubate at room temperature for 10 min with gentle shaking Transfer 6 μL lysate and 10 μL reaction mixture (60 parts reaction buffer/10 parts activation buffer/1 part each of donor and acceptor beads, Perkin Elmer, 6760617R) to a 384 well proxiplate (Perkin Elmer, 6006280) for the p-p70S6 kinase (Thr389) and p-AKT(Ser473) assays. Seal the plate and incubate at RT for 4 h. […] Read the plates on a Perkin Elmer EnVision equipped with a TurboModule using standard AlphaScreen® settings (Ex680 nm and Em520-620 nm). […]

AKT1(pS473) = experiment: AlphaScreen SureFire p-AKT (Ser473) in U87MG cells; format: cell-based; conditions: Homo sapiens, U-87 MG, 1 h, n = 4, read-out: AKT1(pS473) Absolute IC50
Description: as §1, §2, §3

[2] = test system: MEXF 989 human tumor xenograft cells; experiment: Oncotest tumor clonogenic assay, MEXF 989; format: cell-based; conditions: colony formation, Melanoma MEXF 989, amelanotic melanoma, md, read-out: Absolute IC50
[3] = test system: LXFA 1041 human tumor xenograft cells; experiment: Oncotest tumor clonogenic assay, LXFA 1041; format: cell-based; conditions: colony formation, NSCLC LXFA 1041, adeno carcinoma, md, read-out: Absolute IC50
[4] = test system: OVXF 899 human tumor xenograft cells; experiment: Oncotest tumor clonogenic assay, OVXF 899; format: cell-based; conditions: colony formation, Ovary OVXF 899, pap. serous adeno carcinoma, md, read-out: Absolute IC50
[5] = test system: OVXF 550 human tumor xenograft cells; experiment: Oncotest tumor clonogenic assay, OVXF 550; format: cell-based; conditions: colony formation, Ovary OVXF 550, carcinoma, read-out: Absolute IC50
[6] = test system: LXFA 1584 human tumor xenograft cells; experiment: Oncotest tumor clonogenic assay, LXFA 1584; format: cell-based; conditions: colony formation, NSCLC LXFA 1584, adeno carcinoma, pd, read-out: Absolute IC50
[7] = test system: LXFA 983 human tumor xenograft cells; experiment: Oncotest tumor clonogenic assay, LXFA 983; format: cell-based; conditions: colony formation, NSCLC LXFA 983, adeno carcinoma, pd, read-out: Absolute IC50
pS473 AKT = experiment: In vivo target inhibition in U87MG tumors, pS473 AKT; conditions: Mus musculus, U-87 MG; for inhibition at 0.5 mg/kg: 0.5 mg/kg oral; for inhibition at 1.5 mg/kg: 1.5 mg/kg oral; for inhibition at 3 mg/kg: 3 mg/kg oral; for inhibition at 6 mg/kg: 6 mg/kg oral; for inhibition at 10 mg/kg: 10 mg/kg oral; for inhibition at 12 mg/kg: 12 mg/kg oral
Description: Implant U87MG human glioblastoma cells (5×10^6) subcutaneously into the flank of athymic nude mice in 0.2 mL of matrigel. Ten days post-implantation, dose mice orally according to a time course, single dose/single time point, or dose response protocol for the determination of TMED50 (threshold minimum effective dose). Flash freeze tumors at harvest and collect blood for the determination of parent compound plasma exposure and the calculation of TMEC50 (threshold minimum effective concentration) in the case of dose response studies. Homogenize tumors in 500 μL of XY Lysis Buffer (10 μg/mL Leupeptin, 10 μg/mL Trypsin-Chymotrypsin Inhibitor, 10 μg/mL Tosyl phenyl-alanyl chloromethyl ketone, 10 μg/mL Aprotinin, 60 mM Beta-Glycerol Phosphate, 1% Triton X100, 25 mM Tris pH 7.5, 2.5 mM Pyrophosphate, 150 mM NaCl, 2 mM p-tosyl-L-arginine methyl ester, 15 mM para-nitrophenyl phosphate, 5 mM benzamidine, 1 mM sodium vanadate, 10 mM sodium fluoride, 50 μg/mL phenyl-methane sulfonyl fluoride, 1 mM 1,4-dithiothreitol (DTT), 15 mM EDTA pH 8.0, 5 mM EGTA pH 8.0, 1 μM Microcystin, 1 μM Okadaic Acid, and 1 Roche Complete protease inhibitor mini-tablet per 10 mL) using RNase Free Pellet Pestle (Kimble-Kontes). Aliquot lysates and either assay immediately or store at −80° C. for later testing. Use the multiplex format of Meso Scale Discovery (Gaithersburg, Md.) ELISA technology and measure in vivo target inhibition of PI3K and mTOR to assess effects on phosphorylation of the threonine 308 site of AKT, a downstream effector of PI3K; phosphorylation on the threonine 389 site of p70 S6K and on the serine 240/244 site of S6RP, downstream effectors of mTORC1; phosphorylation of the serine 473 site of AKT, a downstream effector of mTORC2. Add 20 μg of lysate to carbon electrode containing 96-well plates pre-spotted with the appropriate capture antibodies. Probe the protein of interest using a ruthenium labeled detection antibody. Pass current over the electrode in the presence of read buffer containing the co-reactant TPA, and quantitate and record the light generated by electro-chemiluminescence with the MSD Sector 6000 instrument. Calculate percent inhibitions relative to the vehicle control group and perform ANOVA analysis using the JMP software package for the determination of statistical significance.

- IC50 [1]: 231 nM
- IC50 (S6RP(pS240/242)): 19.1 nM
- IC50 (AKT1(pS473)): 94.2 nM
- IC50 [2]: 185 nM
- IC50 [3]: 205 nM
- IC50 [4]: 590 nM
- IC50 [5]: 28 nM
- IC50 [6]: 85 nM
- IC50 [7]: 103 nM
SMILES: CO[C@@H](C)Cn1c(=O)n(C)c2cnc3ccc(-c4cncc(C(C)(C)O)c4)cc3c21 [Example 1, 8-[5-(1-Hydroxy-1-methylethyl)pyridin-3-yl]-1-[(2S)-2-methoxypropyl]-3-methyl-1,3-dihydro-2H-imidazo[4,5-c]quinolin-2-one]
- inhibition at 0.5 mg/kg (pS473 AKT; 0.5 hr post dose): -9%
- inhibition at 0.5 mg/kg (pS473 AKT; 4 hr post dose): -28%
- inhibition at 1.5 mg/kg (pS473 AKT; 0.5 hr post dose): 34%
- inhibition at 1.5 mg/kg (pS473 AKT; 4 hr post dose): -12%
- inhibition at 3 mg/kg (pS473 AKT; 0.25 hr post dose): 23%
- inhibition at 3 mg/kg (pS473 AKT; 0.5 hr post dose): 63%
- inhibition at 3 mg/kg (pS473 AKT; 1 hr post dose): 12%
- inhibition at 3 mg/kg (pS473 AKT; 3 hr post dose): -7%
- inhibition at 3 mg/kg (pS473 AKT; 4 hr post dose): -3%
- inhibition at 6 mg/kg (pS473 AKT; 0.25 hr post dose): 63%
- inhibition at 6 mg/kg (pS473 AKT; 0.5 hr post dose): 77%
- inhibition at 6 mg/kg (pS473 AKT; 1 hr post dose): 67%
- inhibition at 6 mg/kg (pS473 AKT; 2 hr post dose): 51%
- inhibition at 6 mg/kg (pS473 AKT; 4 hr post dose): -5%
- inhibition at 6 mg/kg (pS473 AKT; 6 hr post dose): -8%
- inhibition at 6 mg/kg (pS473 AKT; 12 hr post dose): -6%
- inhibition at 10 mg/kg (pS473 AKT; 0.5 hr post dose): 90%
- inhibition at 10 mg/kg (pS473 AKT; 1 hr post dose): 73%
- inhibition at 10 mg/kg (pS473 AKT; 2 hr post dose): 66%
- inhibition at 10 mg/kg (pS473 AKT; 4 hr post dose): 56%
- inhibition at 10 mg/kg (pS473 AKT; 8 hr post dose): 13%
- inhibition at 12 mg/kg (pS473 AKT; 0.5 hr post dose): 91%
- inhibition at 12 mg/kg (pS473 AKT; 4 hr post dose): 44%
